Earlier results in patent US20180214382A1, “EDIBLE COMPOSITION COMPRISING A POLYSACCHARIDE AND A LIPID” (PERORA GMBH, priority 2015, published 2018).

Details: rat feeding study; independent from intake

For `CCCCCCCCCCCCCCCCCC(=O)OCC(COC(=O)CCCCCCCCCCCCCCCCC)OC(=O)CCCCCCCCCCCCCCCCC` [tristearin], the “true digestibility of stearic acid from tristearin” value is listed as 0.15 g/g.
